Key:
Phakopsora pachyrhizi = assay: In vivo preventive test on Phakopsora pachyrhizi (soybean rust); settings: for protection: dose of ppm of active ingredient (number not given), comparison with WO-2010/130767, text
Protocol: Example C: In Vivo Preventive Test on Phakopsora pachyrhizi (Soybean Rust)
Solvent: 24.5 parts by weight of acetone • 24.5 parts by weight of N,N-dimethylacetamide
Emulsifier: 1 part by weight of alkylaryl polyglycol ether
To produce a suitable preparation of active compound, 1 part by weight of active compound is mixed with the stated amounts of solvent and emulsifier, and the concentrate is diluted with water to the desired concentration.
To test for preventive activity, young plants are sprayed with the preparation of active compound at the stated rate of application. After the spray coating has dried on, the plants are inoculated with an aqueous spore suspension of the causal agent of soybean rust (Phakopsora pachyrhizi) and stay for 24 h without light in an incubation cabinet at approximately 24° C. and a relative atmospheric humidity of 95%.
The plants remain in the incubation cabinet at approximately 24° C. and a relative atmospheric humidity of approximately 80% and a day/night interval of 12 h. The test is evaluated 7 days after the inoculation. 0% means an efficacy which corresponds to that of the untreated control, while an efficacy of 100% means that no disease is observed.

Puccinia recondita = assay: In vivo preventive test on Puccinia recondita (brown rust on wheat)
Protocol: Example A: In Vivo Preventive Test on Puccinia recondita (Brown Rust on Wheat) […]
Emulsifier: 1 μL of Tween® 80 per mg of active ingredient
The active ingredients are made soluble and homogenized in a mixture of Dimethyl sulfoxide/Acetone/Tween® 80 and then diluted in water to the desired concentration.
The young plants of wheat are treated by spraying the active ingredient prepared as described above. Control plants are treated only with an aqueous solution of Acetone/Dimethyl sulfoxide/Tween® 80. After 24 hours, the plants are contaminated by spraying the leaves with an aqueous suspension of Puccinia recondita spores. The contaminated wheat plants are incubated for 24 hours at 20° C. and at 100% relative humidity and then for 10 days at 20° C. and at 70-80% relative humidity.
The test is evaluated 11 days after the inoculation. 0% means an efficacy which corresponds to that of the control plants while an efficacy of 100% means that no disease is observed.

[1] = log P by HPLC on a reversed-phase column (C 18), EEC Directive 79/831 Annex V.A8; assay type: physicochemical; settings: for logP: 0.1% aqueous formic acid and acetonitrile
Protocol: In table 1, the log P values were determined in accordance with EEC Directive 79/831 Annex V.A8 by HPLC (High Performance Liquid Chromatography) on a reversed-phase column (C 18), using the method described below: Temperature: 40° C.; Mobile phases: 0.1% aqueous formic acid and acetonitrile; linear gradient from 10% acetonitrile to 90% acetonitrile. Calibration was carried out using unbranched alkan-2-ones (comprising 3 to 16 carbon atoms) with known log P values (determination of the log P values by the retention times using linear interpolation between two successive alkanones). lambda-max-values were determined using UV-spectra from 200 nm to 400 nm and the peak values of the chromatographic signals.

[2] = HPLC, reversed-phase column (C 18), 40° C., linear gradient 10% to 90% acetonitrile
[3] = HPLC reversed-phase C 18, 40° C., gradient 10% to 90% acetonitrile
[4] = Table 2, compounds of formula (I), HPLC C 18, 40° C.

| Compound | logP [1, 2] | also measured |
| --- | --- | --- |
| Cn1nc(C(F)F)c(C(=O)N(Cc2cc(Cl)ccc2C2CC2)C2CC2)c1F [41 from WO-2010/130767, N-(5-chloro-2-cyclopropylbenzyl)-N-cyclopropyl-3-(difluoromethyl)-5-fluoro-1-methyl-1H-pyrazole-4-carboxamide, reference compound] |  | protection (Phakopsora pachyrhizi): no protection |
| Cn1nc(C(F)F)c(C(=O)N(Cc2ccccc2C2CC2)C2CC2)c1F [47 from WO-2010/130767, N-cyclopropyl-N-(2-cyclopropylbenzyl)-3-(difluoromethyl)-5-fluoro-1-methyl-1H-pyrazole-4-carboxamide, reference compound] |  | Efficacy (Phakopsora pachyrhizi; Table C1, dose 10 ppm): 0% |
| Cn1nc(C(F)F)c(C(=O)NCc2ccccc2C2CC2)c1F [65 from WO-2012/052490, N-(2-cyclopropylbenzyl)-3-(difluoromethyl)-5-fluoro-1-methyl-1H-pyrazole-4-carboxamide] |  | Efficacy (Puccinia recondita; Table A1, dose 100 ppm, examples from WO-2012/052490 formulated in DMF with 2% of alkylarylpolyglycolether): 0%; protection (Puccinia recondita; dose of 100 ppm of active ingredient, comparison with WO-2012/052490): no protection |
| Cn1nc(C(F)F)c(C(=O)N(Cc2cc(F)ccc2C2CC2)C2CC2)c1F [123 from WO-2010/130767, N-cyclopropyl-N-(2-cyclopropyl-5-fluorobenzyl)-3-(difluoromethyl)-5-fluoro-1-methyl-1H-pyrazole-4-carboxamide, reference compound] |  | Efficacy (Phakopsora pachyrhizi; Table C1, dose 10 ppm): 0/23 |
| Cc1ccc(C2(C(C)C)CC2)c(CN(C(=O)c2c(C)nn(C)c2F)C2CC2)c1 [Example 1.122] | 4.54 |  |
| Cc1ccc(C2(C(C)C)CC2)c(CN(C(=O)c2cn(C)nc2C(F)F)C2CC2)c1 [Example 1.123] | 4.49 |  |
| Cc1ccc(C2(C(C)C)CC2)c(CN(C(=O)c2cn(C)nc2C)C2CC2)c1 [Example 1.124] | 3.96 |  |
| Cc1ccc(C2(C(C)C)CC2)c(CN(C(=S)c2cn(C)nc2C(F)F)C2CC2)c1 [Example 1.125] | 4.98 |  |
| CCOC1(c2ccc(C)cc2CN(C(=O)c2nn(C)nc2C(F)F)C2CC2)CC1 [Example 1.126] | 4.21 |  |
| CCOC1(c2ccc(C)cc2CN(C(=O)c2c(C)nn(C)c2F)C2CC2)CC1 [Example 1.127] | 3.53 |  |
| CCOC1(c2ccc(C)cc2CN(C(=O)c2cn(C)nc2C(F)F)C2CC2)CC1 [Example 1.128] | 3.60 |  |
| CCOC1(c2ccc(C)cc2CN(C(=O)c2cn(C)nc2C)C2CC2)CC1 [Example 1.129] | 3.02 |  |
| CCOC1(c2ccc(C)cc2CN(C(=O)c2nn(C)cc2C(F)F)C2CC2)CC1 [Example 1.130] | 3.94 |  |
| CCOC1(c2ccc(C)cc2CN(C(=O)c2c(C)nn(C)c2Cl)C2CC2)CC1 [Example 1.131] | 3.71 |  |
| Cn1cc(C(=O)N(Cc2ccccc2C2(C(F)F)CC2)C2CC2)c(C(F)F)n1 [Example 1.132] | 3.00 |  |
| Cn1cc(C(=O)N(Cc2ccc(F)cc2C2(C(F)F)CC2)C2CC2)c(C(F)F)n1 [Example 1.133] | 3.09 |  |
| Cn1cc(C(=O)N(Cc2cc(Br)ccc2C2(C(F)F)CC2)C2CC2)c(C(F)F)n1 [Example 1.134] | 3.44 |  |
| Cn1cc(C(=O)N(Cc2cc(Cl)ccc2C2(C(F)F)CC2)C2CC2)c(C(F)F)n1 [Example 1.135] | 3.37 |  |
| Cc1nn(C)c(F)c1C(=O)N(Cc1cc(Cl)ccc1C1(C(F)F)CC1)C1CC1 [Example 1.136] | 3.33 |  |
| Cn1cc(C(=O)N(Cc2cc(F)ccc2C2(C(F)F)CC2)C2CC2)c(C(F)F)n1 [Example 1.137] | 3.09 |  |
| Cc1ccc(C2(C(F)F)CC2)c(CN(C(=O)c2cn(C)nc2C(F)F)C2CC2)c1 [Example 1.138] | 3.29 |  |
| Cc1ccc(C2(C(F)F)CC2)c(CN(C(=O)c2c(C)nn(C)c2F)C2CC2)c1 [Example 1.139] | 3.21 |  |
| Cc1ccc(C2(C(F)F)CC2)c(CN(C(=S)c2cn(C)nc2C(F)F)C2CC2)c1 [Example 1.140] | 3.76 |  |
| Cc1ccc(C2(C(F)F)CC2)c(CN(C(=S)c2c(C)nn(C)c2F)C2CC2)c1 [Example 1.141] | 3.81 |  |
| Cn1cc(C(=O)N(Cc2c(Br)cccc2C2(C(F)F)CC2)C2CC2)c(C(F)F)n1 [Example 1.142] | 3.39 |  |
| Cc1nn(C)c(F)c1C(=O)N(Cc1ccc(Cl)cc1C1(CC(C)C)CC1)C1CC1 [Example 1.143] | 5.08 |  |
| Cc1ccc(C2(CC(C)C)CC2)c(CN(C(=O)c2c(C)nn(C)c2F)C2CC2)c1 [Example 1.144] | 4.97 |  |

| Compound | logP [1, 2] | also measured |
| --- | --- | --- |
| Cn1cc(C(=O)N(Cc2ccccc2C2(C(F)(F)F)CC2)C2CC2)c(C(F)F)n1 [Example 1.145] | 3.41 |  |
| Cc1cc(C(=O)N(Cc2ccccc2C2(C(F)(F)F)CC2)C2CC2)c(C)o1 [Example 1.146] | 4.31 |  |
| Cn1cc(C(=O)N(Cc2cc(Cl)ccc2C2(C(F)(F)F)CC2)C2CC2)c(C(F)F)n1 [Example 1.147] | 3.78 |  |
| Cc1cc(C(=O)N(Cc2cc(Cl)ccc2C2(C(F)(F)F)CC2)C2CC2)c(C)o1 [Example 1.148] | 4.82 |  |
| Cn1cc(C(=S)N(Cc2cc(Cl)ccc2C2(C(F)(F)F)CC2)C2CC2)c(C(F)F)n1 [Example 1.149] | 4.23 |  |
| Cn1cc(C(=O)N(Cc2cc(F)ccc2C2(C(F)(F)F)CC2)C2CC2)c(C(F)F)n1 [Example 1.150] | 3.48 |  |
| Cc1cc(C(=O)N(Cc2cc(F)ccc2C2(C(F)(F)F)CC2)C2CC2)c(C)o1 [Example 1.151] |  | logP [1, 3]: 4.44 |
| Cn1cc(C(=S)N(Cc2cc(F)ccc2C2(C(F)(F)F)CC2)C2CC2)c(C(F)F)n1 [Example 1.152] |  | logP [1, 3]: 3.94 |
| Cn1cc(C(=O)N(Cc2cc(F)ccc2C2(C)CC2(Cl)Cl)C2CC2)c(C(F)F)n1 (centres unmarked) [Example 1.153] |  | logP [1, 3]: 3.68 |
| COCC1(c2ccc(C)cc2CN(C(=O)c2cn(C)nc2C(F)F)C2CC2)CC1 [Example 1.154] |  | logP [1, 3]: 3.13 |
| COCC1(c2ccc(C)cc2CN(C(=O)c2cc(C)oc2C)C2CC2)CC1 [Example 1.155] |  | logP [1, 3]: 4.03 |
| COCC1(c2ccc(C)cc2CN(C(=O)c2c(C)nn(C)c2F)C2CC2)CC1 [Example 1.156] |  | logP [1, 3]: 3.02 |
| COCC1(c2ccc(C)cc2CN(C(=O)c2cn(C)nc2C)C2CC2)CC1 [Example 1.157] |  | logP [1, 3]: 2.61 |
| COCC1(c2ccc(C)cc2CN(C(=O)c2c(C)nn(C)c2Cl)C2CC2)CC1 [Example 1.158] |  | logP [1, 3]: 3.19 |
| Cc1cc(C(=O)N(Cc2cc(Cl)c(Cl)cc2C2(C)CC2)C2CC2)c(C)o1 [Example 1.159] |  | logP [1, 3]: 5.43 |
| Cc1nn(C)cc1C(=O)N(Cc1cc(Cl)c(Cl)cc1C1(C)CC1)C1CC1 [Example 1.160] |  | logP [1, 3]: 3.81 |
| Cc1nn(C)c(Cl)c1C(=O)N(Cc1cc(Cl)c(Cl)cc1C1(C)CC1)C1CC1 [Example 1.161] |  | logP [1, 3]: 4.61 |
| Cc1nn(C)c(F)c1C(=O)N(Cc1cc(Cl)c(Cl)cc1C1(C)CC1)C1CC1 [Example 1.162] |  | logP [1, 3]: 4.35 |
| Cn1cc(C(=O)N(Cc2cc(Cl)c(Cl)cc2C2(C)CC2)C2CC2)c(C(F)F)n1 [Example 1.163] |  | logP [1, 3]: 4.28 |
| Cc1ccc(C2(C)CC2)c(CN(C(=O)c2c(C)nn(C)c2F)C2CC2)c1 [I.040] |  | Efficacy (Phakopsora pachyrhizi; Table C1, dose 10 ppm): 99% |
| CCC1(c2ccc(Cl)cc2CN(C(=O)c2c(C)nn(C)c2F)C2CC2)CC1 [I.087] |  | Efficacy (Phakopsora pachyrhizi; Table C2, dose 10 ppm): 79%; protection (Phakopsora pachyrhizi): at least 70% |
| CCCC1(c2ccc(C)cc2CN(C(=O)c2c(C)nn(C)c2F)C2CC2)CC1 [I.113] | 4.61 | Efficacy (Phakopsora pachyrhizi; Table C1, dose 10 ppm): 85% |
| Cn1cc(C(=O)N(Cc2cc(F)ccc2C2(C(F)F)CC2)C2CC2)c(C(F)F)n1 [I.137, N-cyclopropyl-3-(difluoromethyl)-N-{2-[1-(difluoromethyl)cyclopropyl]-5-fluorobenzyl}-1-methyl-1H-pyrazole-4-carboxamide] |  | chromatographic logP ([1]; reversed-phase C18 HPLC column, given in the preparation examples): 3.09 |
| Cn1cc(C(=O)N(Cc2cccc3c2C2(CC3)CC2)C2CC2)c(C(F)F)n1 [Ia.01] |  | logP [1, 4]: 3.51 |
| Cn1cc(C(=O)N(Cc2cccc3c2C2(CCC3)CC2)C2CC2)c(C(F)F)n1 [Ia.02] |  | logP [1, 4]: 3.73 |
| Cn1cc(C(=S)N(Cc2cccc3c2C2(CCC3)CC2)C2CC2)c(C(F)F)n1 [Ia.03] |  | logP [1, 4]: 4.37 |

Reference: patent publication US10071967B2, “N-cycloalkyl-N-{[2-(1-substitutedcycloalkyl)phenyl]methylene}-(thio)carboxamide derivatives” (BAYER CROPSCIENCE AKTIENGESELLSCHAFT, priority 2013, dated 2018)
